Like-named read-outs stand apart in the source and are kept apart here.
Target: phosphorylated active hERK2 enzyme (Homo sapiens (Human), UniProt P28482)
Assay: Active Human ERK2 (hERK2) Activity Assay (IMAP-FP)
Assay type: biochemical
Settings: 10 point titration, read-out: AERK2 IC50
Summary of the method: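 IMAP fluorescence-polarization kinase assay: 0.5 nM activated hERK2 with 900 nM unlabeled plus 80 nM labeled peptide and 30 μM ATP, reacted 60 min. Quenched with IMAP beads in binding buffer with 24 mM NaCl; FP read after 60 min equilibration.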

[1] = Table 6, 0.5 nM hERK2, 30 μM ATP

phosphorylated active hERK2 enzyme, sequence (P28482 whole entry): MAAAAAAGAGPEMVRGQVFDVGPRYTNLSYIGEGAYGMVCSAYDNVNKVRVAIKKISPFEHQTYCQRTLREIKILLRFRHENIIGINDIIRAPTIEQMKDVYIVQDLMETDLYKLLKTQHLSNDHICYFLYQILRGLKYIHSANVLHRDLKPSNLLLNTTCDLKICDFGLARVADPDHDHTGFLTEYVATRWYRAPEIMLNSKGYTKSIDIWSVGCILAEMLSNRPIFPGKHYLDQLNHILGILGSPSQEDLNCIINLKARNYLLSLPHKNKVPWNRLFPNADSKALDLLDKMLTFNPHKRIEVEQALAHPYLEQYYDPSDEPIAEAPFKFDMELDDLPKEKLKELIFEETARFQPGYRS

Row | SMILES | IC50 [1] [nM] | IC50 (Table 5, 0.5 nM hERK2, 30 μM ATP) [nM]
1 | C[C@@H](NC(=O)Nc1cc2[nH]nc(NC(C)(C)C)c2cn1)c1ccccc1 [Example 351, 1-[3-(tert-butylamino)-1H-pyrazolo[4,3-c]-pyridin-6-yl]-3-[(1R)-1-phenylethyl]urea] | 88 | –
2 | CC(C)(O)[C@@H](NC(=O)Nc1cc2[nH]nc(N3CC(F)(F)C3)c2cn1)c1ccccc1 [Example 367, 1-[3-(3,3-difluoro-azetidin-1-yl)-1H-pyrazolo[4,3-c]-pyridin-6-yl]-3-[(1S)-2-hydroxy-2-methyl-1-phenylpropyl]urea] | 0.6 | –
3 | COC[C@@H](NC(=O)Nc1cc2[nH]nc(N[C@H]3CCOC3)c2cn1)c1ccccc1 [Example 76, 1-[(1S)-2-methoxy-1-phenylethyl]-3-{3-[(3S)-tetrahydro-furan-3-ylamino]-1H-pyrazolo[4,3-c]-pyridin-6-yl}urea] | 1.3 | –
4 | C[C@@H](NC(=O)Nc1cc2[nH]nc(N3CC4CCC(C3)O4)c2cn1)c1ccccc1 [Example 453, 1-[3-(8-oxa-3-azabicyclo[3.2.1]-oct-3-yl)-1H-pyrazolo[4,3-c]-pyridin-6-yl]-3-[(1R)-1-phenylethyl]urea] | 3.4 | –
5 | Cc1nc(NC(=O)N[C@@H](c2ccc(F)cc2)[C@@H](C)O)cc2[nH]nc(N3CCOCC3)c12 [Example 106, 1-((1S,2R)-1-(4-Fluorophenyl)-2-hydroxypropyl)-3-(4-methyl-3-morpholino-1H-pyrazolo[4,3-c]pyridin-6-yl)urea] | 0.5 | –
6 | CC(C)(O)[C@@H](NC(=O)Nc1cc2[nH]nc3c2c(n1)CCN3)c1ccccc1 [Example 137, (S)-1-(2-hydroxy-2-methyl-1-phenylpropyl)-3-(1,3,4,5-tetrahydropyrazolo[3,4,5-de][1,6]naphthyridin-7-yl)urea] | 1.3 | –
7 | COC[C@@H](NC(=O)Nc1cc2[nH]nc(NCC3CCC3)c2cn1)c1ccccc1 [Example 156, 1-{3-[(cyclobutyl-methyl)amino]-1H-pyrazolo[4,3-c]-pyridin-6-yl}-3-[(1S)-2-methoxy-1-phenylethyl]urea] | 0.7 | –
8 | C[C@@H](NC(=O)Nc1cc2[nH]nc(NCCC(=O)N(C)C)c2cn1)c1ccccc1 [Example 348, N,N-dimethyl-N~3~-[6-({[(1R)-1-phenylethyl]-carbamoyl}amino)-1H-pyrazolo[4,3-c]pyridin-3-yl]-beta-alaninamide] | 3.1 | –
9 | CO[C@@H]1CCC[C@H]1NC(=O)Nc1cc2[nH]nc(N)c2cn1 [Example 416, 1-(3-amino-1H-pyrazolo[4,3-c]pyridin-6-yl)-3-[(1R,2R)-2-methoxy-cyclopentyl]urea] | 483 | –
10 | COC(=O)Nc1n[nH]c2cc(NC(=O)N[C@@H](c3ccccc3)[C@H]3CCCO3)ncc12 [Example 290, methyl {6-[({(S)-phenyl[(2R)-tetra-hydrofuran-2-yl]-methyl}carbamoyl)amino]-1H-pyrazolo[4,3-c]-pyridin-3-yl}-carbamate] | 0.6 | –
11 | Nc1n[nH]c2cc(NC(=O)N[C@@H]3CCOc4ccccc43)ncc12 [Example 258, 1-(3-amino-1H-pyrazolo[4,3-c]pyridin-6-yl)-3-[(4R)-3,4-dihydro-2H-chromen-4-yl]-urea] | 103 | –
12 | C[C@@H](NC(=O)Nc1cc2[nH]nc(NC3CCC(F)(F)CC3)c2cn1)c1ccccc1 [Example 195, 1-{3-[(4,4-difluorocyclohexyl)amino]-1H-pyrazolo[4,3-c]-pyridin-6-yl}-3-[(1R)-1-phenylethyl]urea] | 10.2 | –
13 | CN1C[C@H](NC(=O)Nc2cc3[nH]nc(N4CCOCC4)c3cn2)[C@@H](c2ccccc2)C1 [Example 41, 1-[(3R,4S)-1-Methyl-4-phenylpyrrolidin-3-yl]-3-(3-morpholin-4-yl-1H-pyrazolo[4,3-c]pyridin-6-yl)urea] | – | 20.2
14 | CC(C)(O)[C@@H](NC(=O)Nc1cc2[nH]nc(N3CC4CC3CO4)c2cn1)c1ccccc1 (stereo partly drawn) [Example 447, 1-[(1S)-2-hydroxy-2-methyl-1-phenylpropyl]-3-[3-(2-oxa-5-azabicyclo[2.2.1]-hept-5-yl)-1H-pyrazolo[4,3-c]-pyridin-6-yl]urea] | 1.5 | –
